From patent US20080161315A1, “INDOLES” (priority 2006, published 2008)
Where a name gives a salt, the structure may show the parent alone.

Biological target: T1, human V1a receptor (Homo sapiens, UniProt P37288)
T1 construct: expressed in transfected cells; host or cells: HEK293 cells, transiently transfected; membrane preparation
Assay: human V1a receptor binding studies (3H-Vasopressin, SPA beads)
Conditions: membranes of HEK293 cells transiently transfected with human V1a receptor, Ki calculated by Cheng-Prussoff equation, read-out: pKi hV1a (converted)
Procedure: The human V1a receptor was cloned by RT-PCR from total human liver RNA. The coding sequence was subcloned in an expression vector after sequencing to confirm the identity of the amplified sequence. […] Cell membranes were prepared from HEK293 cells transiently transfected with the expression vector and grown in 20 liter fermenters with the following protocol.
50 g of cells were resuspended in 30 ml freshly prepared ice cold Lysis buffer (50 mM HEPES, 1 mM EDTA, 10 mM MgCl2 adjusted to pH=7.4+complete cocktail of protease inhibitor (Roche Diagnostics)); homogenized with Polytron for 1 min; and sonicated on ice for 2×2 minutes at 80% intensity (Vibracell sonicator). The preparation was centrifuged 20 min at 500 g at 4° C., the pellet was discarded and the supernatant centrifuged 1 hour at 43,000 g at 4° C. (19,000 rpm). The pellet was resuspended in 12.5 ml Lysis buffer+12.5 ml Sucrose 20% and homogenized using a Polytron for 1-2 min. The protein concentration was determined by the Bradford method and aliquots were stored at −80° C. until use. For binding studies 60 mg Yttrium silicate SPA beads (Amersham) were mixed with an aliquot of membrane in binding buffer (50 mM Tris, 120 mM NaCl, 5 mM KCl, 2 mM CaCl2, 10 mM MgCl2) for 15 minutes with mixing. 50 ul of bead/membrane mixture was then added to each well of a 96 well plate, followed by 50 ul of 4 nM 3H-Vasopressin (American Radiolabeled Chemicals). For total binding measurement 100 ul of binding buffer were added to the respective wells, for non-specific binding 100 ul of 8.4 mM cold vasopressin and for compound testing 100 ul of a serial dilution of each compound in 2% DMSO. The plate was incubated Ih at room temperature, centrifuged 1 min at 1000 g and counted on a Packard Top-Count. Non-specific binding counts were subtracted from each well, and data was normalized to the maximum specific binding set at 100%. To calculate an IC 50 the curve was fitted using a non-linear regression model (XLfit), and the Ki was calculated using the Cheng-Prussoff equation.

T1 sequence (P37288 whole entry): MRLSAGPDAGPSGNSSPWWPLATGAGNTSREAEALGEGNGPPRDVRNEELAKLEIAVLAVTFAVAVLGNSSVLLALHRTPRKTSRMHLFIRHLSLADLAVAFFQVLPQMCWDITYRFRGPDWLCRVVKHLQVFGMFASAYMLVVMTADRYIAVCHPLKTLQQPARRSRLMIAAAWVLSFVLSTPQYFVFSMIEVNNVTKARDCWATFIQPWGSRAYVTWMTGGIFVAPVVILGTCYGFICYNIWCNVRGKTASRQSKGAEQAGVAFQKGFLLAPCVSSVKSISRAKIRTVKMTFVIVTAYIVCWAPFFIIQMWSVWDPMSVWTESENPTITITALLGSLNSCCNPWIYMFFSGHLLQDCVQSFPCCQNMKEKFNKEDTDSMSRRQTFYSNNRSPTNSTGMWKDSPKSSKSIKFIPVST

| SMILES | Ki [nM] |
| --- | --- |
| O=C(c1c[nH]c2cc(Cl)ccc12)N1CCC(N2C(=O)Cc3ccccc32)CC1 [Example 1, 1-[1-(6-Chloro-1H-indole-3-carbonyl)-piperidin-4-yl]-1,3-dihydro-indol-2-one] | 8.91 |
| O=C(c1cn(Cc2cc(F)cc(F)c2)c2cc(Cl)ccc12)N1CCC(N2C(=O)Cc3ccccc32)CC1 [Example 2, 1-{1-[6-Chloro-1-(3,5-difluoro-benzyl)-1H-indole-3-carbonyl]-piperidin-4-yl}-1,3-dihydro-indol-2-one] | 2.57 |
| CNC(=O)Cn1cc(C(=O)N2CCC(N3C(=O)Cc4ccccc43)CC2)c2ccc(Cl)cc21 [Example 3, 2-{6-Chloro-3-[4-(2-oxo-2,3-dihydro-indol-1-yl)-piperidine-1-carbonyl]-indol-1-yl}-N-methyl-acetamide] | 1.82 |
| CN(C)C(=O)Cn1cc(C(=O)N2CCC(N3C(=O)Cc4ccccc43)CC2)c2ccc(Cl)cc21 [Example 4, 2-(6-Chloro-3-{[4-(2-oxo-2,3-dihydro-1H-indol-1-yl)piperidin-1-yl]carbonyl}-1H-indol-1-yl)-N,N-dimethylacetamide] | 1.29 |
| CCN(CC)C(=O)Cn1cc(C(=O)N2CCC(N3C(=O)Cc4ccccc43)CC2)c2ccc(Cl)cc21 [Example 5, 2-{6-Chloro-3-[4-(2-oxo-2,3-dihydro-indol-1-yl)-piperidine-1-carbonyl]-indol-1-yl}-N,N-diethyl-acetamide] | 11.7 |
| CS(=O)(=O)NCCn1cc(C(=O)N2CCC(N3C(=O)Cc4ccccc43)CC2)c2ccc(Cl)cc21 [Example 6, N-[2-(6-Chloro-3-{[4-(2-oxo-2,3-dihydro-1H-indol-1-yl)piperidin-1-yl]carbonyl}-1H-indol-1-yl)ethyl]methanesulfonamide] | 3.16 |
| CC(=O)NCCn1cc(C(=O)N2CCC(N3C(=O)Cc4ccccc43)CC2)c2ccc(Cl)cc21 [Example 7, N-[2-(6-Chloro-3-{[4-(2-oxo-2,3-dihydro-1H-indol-1-yl)piperidin-1-yl]carbonyl}-1H-indol-1-yl)ethyl]acetamide] | 11.7 |
| Cc1[nH]c2cc(Cl)ccc2c1C(=O)N1CCC(N2C(=O)Cc3ccccc32)CC1 [Example 8, 1-[1-(6-Chloro-2-methyl-1H-indole-3-carbonyl)-piperidin-4-yl]-1,3-dihydro-indol-2-one] | 12.6 |
| CNC(=O)Cn1cc(C(=O)N2CCC(n3c(=O)oc4ccccc43)CC2)c2ccc(Cl)cc21 [Example 10, 2-{6-Chloro-3-[4-(2-oxo-benzooxazol-3-yl)-piperidine-1-carbonyl]-indol-1-yl}-N-methyl-acetamide] | 6.76 |
| CN(C)C(=O)Cn1cc(C(=O)N2CCC(n3nnc4ccccc43)CC2)c2ccc(Cl)cc21 [Example 13, 2-(3-{[4-(1H-Benzotriazol-1-yl)piperidin-1-yl]carbonyl}-6-chloro-1H-indol-1-yl)-N,N-dimethylacetamide] | 14.1 |
| CNCCn1cc(C(=O)N2CCC(N3C(=O)Cc4ccccc43)CC2)c2ccc(Cl)cc21 [Example 14, 1-{1-[6-Chloro-1-(2-methylamino-ethyl)-1H-indole-3-carbonyl]-piperidin-4-yl}-1,3-dihydro-indol-2-one hydrochloride] | 6.61 |
| CN(C)CCn1cc(C(=O)N2CCC(N3C(=O)Cc4ccccc43)CC2)c2ccc(Cl)cc21 [Example 15, 1-{1-[6-Chloro-1-(2-dimethylamino-ethyl)-1H-indole-3-carbonyl]-piperidin-4-yl}-1,3-dihydro-indol-2-one] | 2.09 |
| CN(C)CCn1cc(C(=O)N2CCC(n3nnc4ccccc43)CC2)c2ccc(Cl)cc21 [Example 17, (4-Benzotriazol-1-yl-piperidin-1-yl)-[6-chloro-1-(2-dimethylamino-ethyl)-1H-indol-3-yl]-methanone] | 19.5 |
| CN1CCn2c(c(C(=O)N3CCC(n4nnc5ccccc54)CC3)c3ccc(Cl)cc32)C1 [Example 18, (4-Benzotriazol-1-yl-piperidin-1-yl)-(7-chloro-2-methyl-1,2,3,4-tetrahydro-pyrazino[1,2-a]indol-10-yl)-methanone] | 20.9 |
